The target in the assay is T1, human Glucose-dependent Insulinotropic Polypeptide Receptor (hGIPR) (Homo sapiens, UniProt P48546).
T1 sequence (P48546 22-466): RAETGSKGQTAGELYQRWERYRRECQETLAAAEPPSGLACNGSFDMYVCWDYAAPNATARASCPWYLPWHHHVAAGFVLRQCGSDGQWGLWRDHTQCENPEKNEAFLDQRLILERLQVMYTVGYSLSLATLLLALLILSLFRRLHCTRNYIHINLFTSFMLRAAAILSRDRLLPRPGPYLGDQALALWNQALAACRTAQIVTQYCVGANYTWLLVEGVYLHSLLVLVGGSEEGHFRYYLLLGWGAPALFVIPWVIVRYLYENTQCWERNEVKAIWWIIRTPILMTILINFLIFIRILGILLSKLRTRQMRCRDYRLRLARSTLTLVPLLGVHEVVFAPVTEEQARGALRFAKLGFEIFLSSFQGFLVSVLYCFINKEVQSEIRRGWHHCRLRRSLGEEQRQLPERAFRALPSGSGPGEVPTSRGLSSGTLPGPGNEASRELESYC
In words: Functional in vitro GIPR antagonist potency assay (cAMP HTRF, CHO-K1 cells stably expressing hGIPR, hGIP stimulation at EC80). The assay is classed as cell-based. The procedure: The functional in vitro antagonist potency for test compounds was determined by monitoring intracellular cyclic adenosine monophosphate (cAMP) levels in Chinese hamster ovary (CHO)—K1 cells stably expressing the human Glucose-dependent Insulinotropic Polypeptide Receptor (hGIPR). Following agonist activation, hGIPR associates with the G-protein complex causing the Gas subunit to exchange bound guanosine diphosphate (GDP) for guanosine triphosphate (GTP), followed by dissociation of the Gas-GTP complex. The activated Gas subunit can couple to downstream effectors to regulate the levels of second messengers or cAMP within the cell. Thereby, determination of intracellular cAMP levels allows for pharmacological characterization. Intracellular cAMP levels are quantitated using a homogenous assay utilizing the Homogeneous Time Resolved Fluorescence (HTRF) technology from Perkin Elmer. […] The two entities compete for binding to a monoclonal anti-cAMP antibody labeled with cryptate. The specific signal is inversely proportional to the concentration of cAMP in the cells.
Test compounds were solubilized to a concentration of 30 mM in 100% dimethyl sulfoxide (DMSO). An 11-point dilution series using 1 in 3.162-fold serial dilutions was created in 100% DMSO with a top concentration of 8 mM. […]
Frozen assay-ready vials (at 1×10^7 cells/vial) of CHO-K1 cells stably expressing the Gs-coupled human GIPR receptor (Eurofins, DiscoverX, Cat No. 95-0146C2) were thawed, counted, and resuspended in assay buffer consisting of Hank's Balanced Salt Solution (HBSS, Lonza Cat No. 10-527) containing 20 mM (4-(2-hydroxyethyl)-1-piperazineethanesulfonic acid (HEPES, Lonza, Cat No. 17-737E), 0.1% bovine serum albumin (BSA, Sigma, Cat No. A7979), and 200 μM 3-isobutyl-1-methylxanthine (IBMX, Sigma, Cat No. 15879) at a density of 4×10^5 cells/mL. Cells were added to assay plate (5 μL/well of 4×10^5 cells/mL stock for 2,000 cells/well final) containing 50 nL of 200×FAC test compound, and incubated at 37° C. […] ([…]: 5% CO2), after which intracellular cAMP levels were quantified as per Perkin Elmer's protocol (5 μL of d2 and then 5 μL cryptate, incubated for 1 hour at room temperature). Emission spectra of samples were measured on a Pherastar plate reader (BMG Labtech Inc) using a HTRF protocol (excitation, 320 nm; emission, 665 nm/620 nm).
([…]: 5% CO2), with a micro-clime lid. […] ([…]: 5% CO2), after which intracellular cAMP levels were quantified and samples measured as described previously. […]
Data were analyzed using the ratio of fluorescence intensity at 620 and 665 nm for each well, extrapolated from the cAMP standard curve to express data as nanomolar (nM) cAMP for each well. […]
On the technique in general: In TR-FRET formats the signal depends on donor and acceptor labels being close together.

[1] abbreviates: CHO-K1 cells stably expressing human GIPR, inhibition of hGIP (EC80)-stimulated cAMP, 2 h preincubation.

Like-named read-outs stand apart in the source and are kept apart here.

The IC50 is the concentration at which inhibition is half-maximal. Higher therefore signals weaker potency. As for `Cc1cc(NC(=O)N2CCC[C@@H]2C(=O)Nc2ccc(-c3ccc(C(=O)O)nc3)cc2)ccc1C(C)C` [Compound 19A, 5-{4-[(1-{[3-Methyl-4-(propan-2-yl)phenyl]carbamoyl}-D-prolyl)amino]phenyl}pyridine-2-carboxylic acid], the IC50 under setting [1] was found to be 11 nM.

As to `CC(C)c1ccc(NC(=O)N2CC[C@H](C)[C@@H]2C(=O)Nc2ccc(-c3ccc(C(=O)O)cc3)cc2)cc1` (single isomer, unassigned) [Compound 34A, 4′-{[(3S)-3-Methyl-1-{[4-(propan-2-yl)phenyl]carbamoyl}-D-prolyl]amino}[1,1′-biphenyl]-4-carboxylic acid or 4′-{[(3R)-3-Methyl-1-{[4-(propan-2-yl)phenyl]carbamoyl}-L-prolyl]amino}[1,1′-biphenyl]-4-carboxylic acid], the concentration for half-maximal inhibition (IC50) is 10 nM. This counts as double-digit nanomolar.

`CC(C)c1ccc(NC(=O)N2CC[C@@H](C)[C@@H]2C(=O)Nc2ccc(-c3ccc(C(=O)O)cc3)cc2)cc1` (single isomer, unassigned) [Compound 35A, 4′-{[(3R)-3-Methyl-1-{[4-(propan-2-yl)phenyl]carbamoyl}-D-prolyl]amino}[1,1′-biphenyl]-4-carboxylic acid or 4′-{[(3S)-3-Methyl-1-{[4-(propan-2-yl)phenyl]carbamoyl}-L-prolyl]amino}[1,1′-biphenyl]-4-carboxylic acid] had an IC50 of 4.6 nM.

For the compound `O=C(O)c1ccc(-c2ccc(NC(=O)[C@H]3CCCN3C(=O)Nc3ccc(C(F)(F)F)cc3)nc2)cc1` [Compound 31A, 4-{6-[(1-{[4-(Trifluoromethyl)phenyl]carbamoyl}-D-prolyl)amino]pyridin-3-yl}benzoic acid], under setting [1], the IC50 came out at 7.8 nM.

The values are drawn from patent US20250235460A1, “COMBINATION THERAPY USING GLUCOSE-DEPENDENT INSULINOTROPIC POLYPEPTIDE RECEPTOR ANTAGONIST COMPOUNDS AND GLP-1 RECEPTOR AGONIST COMPOUNDS” (Pfizer Inc., priority 2024, published 2025).
